Patent US12521435B2, “Photodynamic therapy composition” (CASE WESTERN RESERVE UNIVERSITY, priority 2020, dated 2026)

How the values were obtained:
PC3pip tumors [1] = test: In vivo tumor targeting and intratumor Pc158 release (Maestro fluorescence imaging); design: species or system athymic nude mice; details: E64 intratumorally injected before AuNPs-Pc158 administration
Method: All animal procedures were performed according to Institutional Animal Care and Use Committee (JACUA)-approved protocols (2015-0033). Four- to five-week-old male athymic nude mice were subcutaneously implanted with PC3pip or PC3flu cells (100 μL, cells suspended in PBS/matrigel at 1×10^7 cells/mL) on the right and left flanks, respectively. When the tumors grew to a sufficient size, AuNPs-Pc158 conjugations were intravenously injected via the tail vein with a Pc158 dose of 0.1 mg/kg. The mice were preimaged before, and at 0.5 h, 1 h, 4 h, 8 h, 24 h, 48 h, 72 h, 96 h, and 120 h after NPs injection using the Maestro In vivo Imaging System (PerkinElmer) to monitor the delivery and release of Pc158. Multispectral images were unmixed into their component spectra (Pc158 autofluorescence and background). Component images were used to quantitatively determine the average Pc158 fluorescence intensity of the PC3pip and PC3flu tumors. Tumor tissues at 24 h postinjection were also collected, cut, and imaged to see the Pc158 distribution (details in the histology analysis section).

PC3pip tumors [2] = test: Multiple sequential PDT of tumors around 500 mm^3; type: in vivo, athymic nude mice; details: E64 intratumorally injected after bleaching; following 48 h (Day 2 and Day 3)
Method: Tumor size and mouse body weight was monitored every other day for a 30 day period. […] PDT was performed at 24 h, 2 days, and 3 days post-injection. Fluorescence before and after each PDT was monitored with Maestro, and intensity was quantified. One group of mice that received AuNPs-Pc158 were intratumorally injected with cathepsin inhibitor E64 after the first PDT exposure. After PDT, tumor size and mice body weight were monitored over 24 days.

PC3pip cells = test: In vitro PDT, CCK8 assay; type: cell-based; details: E64 added to block the cleavage
Method: In vitro PDT was evaluated by CCK8 assay. PC3pip and PC3flu cells were seeded in 96-well plates at 1×10^4 cells/well. […] The 96-well plate was irradiated (Appolo Horizon projector, Acco Brands) with radiant exposure at 1 J/cm^2, after which the cells were incubated overnight. After incubation, CCK8 agent (DojinDo Laboratories) was added to each well (10 μL/well) and incubated for 3 h at 37° C., and absorbance at 450 nm was measured for each well.

[3] = test system: PSMA-positive PC3pip cells; test: In vitro targeting and intracellular Pc158 release (confocal microscopy); type: cell-based; details: E64 added prior to coincubation with AuNPs
Method: Retrovirally transformed PSMA-positive PC3pip cells and transfection control PSMA-negative PC3flu cells were incubated for specific uptake and intracellular release studies. Both PC3pip and PC3flu cells were cultured in RPMI1640 medium (Invitrogen Life Technology) with 2 mmol/L L-glutamine, 10% FBS at 37° C., and 5% CO2. PC3pip and PC3flu cells were seeded in μ-Slide 8-Well Chamber Slide (ibidi) at 2000 cells/well. When the cells grew to 70% confluence, AuNPs-Pc158 conjugations were added at a Pc158 concentration of 1 μmol/L and coincubated for 1 h, 6 h, and 24 h. Then the cells were washed with PBS and stained with DAPI, LysoOrange, and MitoGreen (all from abcam) for 30 min at 37° C. and 5% CO2, after which they were washed again with PBS and replete medium added. The release of Pc158 and localization of nuclei, lysosomes, and mitochondria was observed under a Leica HyVolution SP8 confocal microscope (Leica Microsystem Inc.).

CC(C)C[C@H](NC(=O)[C@H]1O[C@@H]1C(=O)O)C(=O)NCCCCN=C(N)N [E64]
Pc158 fluorescence in PC3pip tumors (PC3pip tumors [1]): no Pc158 fluorescence was measurable
Pc158 fluorescence in the tumor after first PDT (PC3pip tumors [2]): fluorescence inhibition
release of free Pc158 and PDT with AuNPs-Pc158 (PC3pip cells): significantly hindered
process of free Pc158 generation from AuNPs-Pc158 in cells [3]: could be blocked
